# Results published in patent US6528685B2 (Teva Pharmaceutical Industries, Ltd., priority 1994, dated 2003).
# Structures can show the parent of a compound that is named as a salt.
# Legend:
# [1] = test system: Mechanically dissociated Neonatal Rat Cerebellum; assay: Enhancement of cell survival, neonatal rat cerebellum cultures without NMDA; format: cell-based; conditions: 0.005 μM; 24 hours after addition, fourth day; percentage of control cells; no NMDA
# Method: The cerebellum was aseptically dissociated from 6 or 7-day old rat pups and placed in a 15 ml sterile plastic conical tube containing 3 ml of Dulbecco's modified Eagle's medium (DMEM) with a high glucose concentration ([…]) and 2 mM (v/v) L-glutamine and an antibiotic antimitotic mixture. The cerebella were then dissociated after 20-25 passages through a sterile 13 gauge, 10 cm long stainless steel needle attached to a 5 ml syringe with an inserted 45 micrometer pore nylon sieve. The dissociated cells were centrifuged at 200 g for 5 minutes. […] Cell viability was determined by the tryptan blue exclusion test.
# Cells were plated at a density of 200/mm^2 on poly-L-lysine coated surfaces. Poly-L-lysine coated glass coverslips were prepared at least one hour in advance of plating by immersing sterile coverslips in sterile distilled water solution containing 15 microgram/ml poly-L-lysine, and washing in sterile water just prior to use. […] After three days in culture, the media was replaced with media containing the desired test compound. Each test compound was tested in duplicate. Toxic-dose response was determined for each compound.
# Cell cultures were grown as described above but in the absence of NMDA and after 3 days a dose of test compound was added. Cell survival was monitored as described above.
# [2] = test system: rats; assay: Maximal electroshock (MES) model, rats; conditions: rats, oral (p.o.) administration; median effective dose
# [3] = test system: mice; conditions: mice i.p.
# [4] = test system: Mechanically dissociated Neonatal Rat Cerebellum; assay: Reversal of NMDA induced cell death, neonatal rat cerebellum cultures; format: cell-based; conditions: for SURVIVING CELL IN CULTURE: relative to control (100%); for PERCENT PROTECTION: cell survival minus NMDA effect (30%); for EFFECTIVE PROTECTION: percent protection x 100/70
# Method: The cerebellum was aseptically dissociated from 6 or 7-day old rat pups and placed in a 15 ml sterile plastic conical tube containing 3 ml of Dulbecco's modified Eagle's medium (DMEM) with a high glucose concentration ([…]) and 2 mM (v/v) L-glutamine and an antibiotic antimitotic mixture. The cerebella were then dissociated after 20-25 passages through a sterile 13 gauge, 10 cm long stainless steel needle attached to a 5 ml syringe with an inserted 45 micrometer pore nylon sieve. The dissociated cells were centrifuged at 200 g for 5 minutes. The supernatant was discarded and the cells resuspended in medium enriched with 15% (v/v) heat inactivated fetal calf serum. Cell viability was determined by the tryptan blue exclusion test.
# Cells were plated at a density of 200/mm^2 on poly-L-lysine coated surfaces. Poly-L-lysine coated glass coverslips were prepared at least one hour in advance of plating by immersing sterile coverslips in sterile distilled water solution containing 15 microgram/ml poly-L-lysine, and washing in sterile water just prior to use. The plated cells were covered with enriched medium and incubated at 37° C. in an atmosphere of 5% CO2 in air and 97% humidity. After three days in culture, the media was replaced with media containing the desired test compound. Each test compound was tested in duplicate. Toxic-dose response was determined for each compound.
# Four groups were run in each set of experiments;
# I. Control, consisting of enriched media alone,
# II. N-methyl-D-aspartate (NMDA, 1 mM for 3 hours) as the cytotoxic challenge,
# III. Test compound plus NMDA, and
# IV. Positive control, spermine(0.01 micromoles) plus NMDA.
# Nerve cell survival was evaluated by phase contrast microscopy and tryptan blue staining after 24 hours.
# Surviving cells in culture are measured relative to control (100%) as described above. Percent protection is the Cell Survival for the test compound minus the NMDA effect. Thus, maximal protection is 100% minus 30% NMDA effect i.e. 70%. The Effective Protection was calculated as the percent of the Percent Protection (X) divided by the maximal protection value (e.g. X×100/70).
# [5] = test system: rats; conditions: rats p.o.
# [6] = test system: rats; assay: Neurotoxicity in rats, positional sense test and gait stance test; conditions: rats p.o.; positional sense test and gait stance test
# Method: (§1) Neurotoxicity of the claimed agents was also assessed in mice (i.p. administration) by the rotorod ataxia test and/or in rats (p.o. administration) by positional sense test and gait stance test. […] The term quantitating the neurotoxicity is the medial neurological toxic dose (TD50), was determined in the above tests.
# [7] = test system: mongolian gerbils; assay: Global brain ischemia in gerbils; format: in vivo, mongolian gerbil; conditions: 3 injections, fraction of hippocampi protected from ischemia, 14 days post-ischemia
# Method: Male mongolian gerbils, aged 2.5-5 months, housed 4-8 in a cage, were supplied freely with food and water and maintained at 24° C. with a 12 hour day/night cycle. […] Each artery was clamped for 5 minutes with aneurysm clips to produce global brain ischemia. The anesthesia was discontinued upon clamping. After 5 minutes the clamps were removed and the wound closed with skin clips.
# For treatment, the test compound or vehicle were injected intra-peritoneally (ip) in a volume of 50 microliters of solvent per 10 g body weight. The first injection was given two minutes after clamp removal, and thereafter daily for the next 2 post-operative days (total of 3 injections).
# Seven groups each of 4-8 animals were compared:
# V. Ischemia—Test compound treated, one sub-group per concentration tested,
# VI. Ischemia and pentobarbital (40 mg/kg) as positive control).
# Analysis of neuronal damage was performed 14 days post-ischemia by counting pyramidal neurons throughout the CA1 layer of the anterior hippocampus in […] thick (paraffin) coronal brain sections stained with hematoxylin and erosin.
# Percent Protection values represent the fraction of hippocampi protected from ischemia in a group of animals treated with the stated dose of compound.
# [8] = test system: mice; assay: Maximal electroshock (MES) model, mice; conditions: mice, intraperitoneal (i.p.) administration
# [9] = test system: mice; assay: Neurotoxicity in mice, rotorod ataxia test; conditions: mice i.p.; rotorod ataxia test
# Method: as §1
smiles,measurement,setting,value
"NC(=O)CN[C@H]1CCc2ccccc21 [Compound 2, (S)-N-(2-Acetamido)-1-aminoindan.HCl]",% ENHANCED SURVIVAL,[1],140%
same,RATS MES 50,[2],21 mg/kg
same,MICE scMet ED50 PI,[3],>150 mg/kg
same,SURVIVING CELL IN CULTURE,[4]; 0.005 μM + NMDA 1 mM 3 hours,56%
same,PERCENT PROTECTION,[4]; 0.005 μM + NMDA,26%
same,EFFECTIVE PROTECTION,[4]; 0.005 μM + NMDA,37%
same,SURVIVING CELL IN CULTURE,[4]; 0.010 μM + NMDA 1 mM 3 hours,51%
same,PERCENT PROTECTION,[4]; 0.010 μM + NMDA,21%
same,EFFECTIVE PROTECTION,[4]; 0.010 μM + NMDA,30%
same,SURVIVING CELL IN CULTURE,[4]; 0.100 μM + NMDA 1 mM 3 hours,33%
same,PERCENT PROTECTION,[4]; 0.100 μM + NMDA,3%
same,EFFECTIVE PROTECTION,[4]; 0.100 μM + NMDA,4%
same,RATS scMet ED50 PI,[5],>250 mg/kg
same,RATS TD50,[6],>500 mg/kg
same,PERCENT PROTECTION,[7]; 0.1 mg/kg ip,0%
same,PERCENT PROTECTION,[7]; 1.0 mg/kg ip,50.0%
same,PERCENT PROTECTION,[7]; 10.0 mg/kg ip,37.5%
same,MICE MES ED50,[8],39 mg/kg
same,MICE TD50,[9],137 mg/kg
